According to ChEMBL document CHEMBL1926604, “Design and synthesis of pyridin-2-ylmethylaminopiperidin-1-ylbutyl amide CCR5 antagonists that are potent inhibitors of M-tropic (R5) HIV-1 replication” (Bioorg Med Chem Lett, 2011):
pIC50: −log10 of the molar value. The source made the active and inactive calls. The calls are words filed in the database; no cut-off is given here.

Experiments:
[1] = test system: Human immunodeficiency virus 1; assay: Antiviral activity against R5 tropic Human immunodeficiency virus 1 BAL infected in human PBMC cells assessed as reduction in viral replication by p24 detection based ELISA; assay type: functional, organism-based
Plasma = assay: (§1) Plasma protein binding in human plasma at 1 uM after 5 hrs by LC-MS/MS analysis; assay type: ADME, cell-free; details: 5 h, 1 µM
[2] = Cytotoxic activity against human PBMC assessed as reduction in cell viability; assay type: cell-based
[3] = target: T1, C-X-C chemokine receptor type 1 (Homo sapiens) (UniProt P25024); assay: Inhibition of CXCR1 by Ca(2+) flux assay
T1 sequence (whole entry): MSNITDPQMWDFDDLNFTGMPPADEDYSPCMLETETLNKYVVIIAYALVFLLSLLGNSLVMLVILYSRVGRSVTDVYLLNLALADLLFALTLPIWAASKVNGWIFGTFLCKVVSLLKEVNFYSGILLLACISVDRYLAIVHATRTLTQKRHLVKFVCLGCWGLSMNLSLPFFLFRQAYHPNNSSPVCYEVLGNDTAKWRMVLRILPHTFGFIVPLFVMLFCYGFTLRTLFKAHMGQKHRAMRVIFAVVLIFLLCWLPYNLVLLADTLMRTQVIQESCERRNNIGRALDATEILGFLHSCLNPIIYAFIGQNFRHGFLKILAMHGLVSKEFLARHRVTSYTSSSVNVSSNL

[4] = target: T2, C-C chemokine receptor type 1 (Homo sapiens) (UniProt P32246); assay: Inhibition of CCR1 by Ca(2+) flux assay
T2 sequence (whole entry): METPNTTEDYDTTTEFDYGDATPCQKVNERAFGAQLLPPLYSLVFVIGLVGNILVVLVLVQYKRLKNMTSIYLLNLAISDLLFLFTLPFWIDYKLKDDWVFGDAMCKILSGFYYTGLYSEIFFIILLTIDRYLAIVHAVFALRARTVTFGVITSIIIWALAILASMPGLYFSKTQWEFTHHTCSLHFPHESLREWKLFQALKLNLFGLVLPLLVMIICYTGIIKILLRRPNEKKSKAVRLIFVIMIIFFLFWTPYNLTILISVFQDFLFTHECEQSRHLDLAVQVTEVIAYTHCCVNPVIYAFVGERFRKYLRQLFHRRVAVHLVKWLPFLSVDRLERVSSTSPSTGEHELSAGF

[5] = target: Voltage-gated inwardly rectifying potassium channel KCNH2 (Homo sapiens, UniProt Q12809); assay: Inhibition of human ERG
Sequence of Voltage-gated inwardly rectifying potassium channel KCNH2 (Q12809 whole entry): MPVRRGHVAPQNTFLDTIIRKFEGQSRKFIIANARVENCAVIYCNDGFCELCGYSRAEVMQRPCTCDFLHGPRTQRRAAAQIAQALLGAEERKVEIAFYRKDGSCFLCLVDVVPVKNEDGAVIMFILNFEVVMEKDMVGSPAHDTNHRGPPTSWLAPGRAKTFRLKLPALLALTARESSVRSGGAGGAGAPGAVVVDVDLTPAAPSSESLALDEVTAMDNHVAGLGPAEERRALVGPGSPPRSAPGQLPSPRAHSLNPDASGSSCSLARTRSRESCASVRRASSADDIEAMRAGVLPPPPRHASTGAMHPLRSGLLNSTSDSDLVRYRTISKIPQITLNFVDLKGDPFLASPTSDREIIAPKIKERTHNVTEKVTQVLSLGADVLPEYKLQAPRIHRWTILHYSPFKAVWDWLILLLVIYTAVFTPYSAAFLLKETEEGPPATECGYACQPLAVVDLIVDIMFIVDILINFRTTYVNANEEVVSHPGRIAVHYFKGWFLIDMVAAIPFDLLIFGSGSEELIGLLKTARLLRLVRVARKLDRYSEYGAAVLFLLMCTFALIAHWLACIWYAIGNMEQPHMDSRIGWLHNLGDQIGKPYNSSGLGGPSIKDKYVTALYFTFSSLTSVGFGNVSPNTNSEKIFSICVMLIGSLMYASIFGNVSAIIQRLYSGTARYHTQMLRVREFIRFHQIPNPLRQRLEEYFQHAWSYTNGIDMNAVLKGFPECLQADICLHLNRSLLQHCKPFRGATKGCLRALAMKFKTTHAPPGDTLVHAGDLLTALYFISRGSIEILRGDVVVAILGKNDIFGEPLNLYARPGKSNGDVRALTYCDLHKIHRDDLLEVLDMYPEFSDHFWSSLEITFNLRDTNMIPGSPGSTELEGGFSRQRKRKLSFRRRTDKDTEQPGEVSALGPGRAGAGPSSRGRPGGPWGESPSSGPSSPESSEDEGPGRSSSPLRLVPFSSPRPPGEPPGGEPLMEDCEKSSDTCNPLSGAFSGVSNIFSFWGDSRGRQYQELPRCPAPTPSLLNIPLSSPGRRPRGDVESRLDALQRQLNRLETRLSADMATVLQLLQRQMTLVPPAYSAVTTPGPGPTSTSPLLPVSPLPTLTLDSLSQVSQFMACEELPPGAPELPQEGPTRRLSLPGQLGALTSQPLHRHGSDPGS

[6] = AUC (0 to infinity) in rat; assay type: ADME, organism-based; parameters: time infinity; concentration or dose not given beside the values; details: plasma
[7] = AUC (0 to infinity) in dog; assay type: ADME, organism-based, Canis lupus familiaris; parameters: time infinity; concentration or dose not given beside the values; details: plasma
[8] = (§2) Volume of distribution at steady state in rat at 10 umol/kg, iv; assay type: ADME, organism-based; details: in vivo, 10 umol/kg, read-out: Vdss
Cytochrome P450 3A4 = Cytochrome P450 3A4 (Homo sapiens, UniProt P08684); assay: Inhibition of CYP3A4; assay type: ADME
Sequence of Cytochrome P450 3A4 (P08684 whole entry): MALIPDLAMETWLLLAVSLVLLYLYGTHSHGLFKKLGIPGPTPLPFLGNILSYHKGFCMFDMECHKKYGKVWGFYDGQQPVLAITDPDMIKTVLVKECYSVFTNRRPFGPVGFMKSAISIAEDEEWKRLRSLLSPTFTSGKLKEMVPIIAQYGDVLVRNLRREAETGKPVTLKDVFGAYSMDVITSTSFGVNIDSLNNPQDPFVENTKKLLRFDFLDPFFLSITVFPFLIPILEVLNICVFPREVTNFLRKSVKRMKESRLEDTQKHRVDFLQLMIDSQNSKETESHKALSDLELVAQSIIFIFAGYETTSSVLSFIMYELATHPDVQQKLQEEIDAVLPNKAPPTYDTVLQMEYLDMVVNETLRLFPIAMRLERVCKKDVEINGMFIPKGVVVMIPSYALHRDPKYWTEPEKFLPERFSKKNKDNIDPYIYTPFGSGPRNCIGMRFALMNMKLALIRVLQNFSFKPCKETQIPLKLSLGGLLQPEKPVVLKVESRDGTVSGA

[9] = Oral bioavailability in dog; assay type: ADME, organism-based, Canis lupus familiaris; details: in vivo
Cytochrome P450 1A2 = target: T3, Cytochrome P450 1A2 (Homo sapiens, UniProt P05177); assay: Inhibition of CYP1A2; assay type: ADME
T3 sequence (P05177 whole entry): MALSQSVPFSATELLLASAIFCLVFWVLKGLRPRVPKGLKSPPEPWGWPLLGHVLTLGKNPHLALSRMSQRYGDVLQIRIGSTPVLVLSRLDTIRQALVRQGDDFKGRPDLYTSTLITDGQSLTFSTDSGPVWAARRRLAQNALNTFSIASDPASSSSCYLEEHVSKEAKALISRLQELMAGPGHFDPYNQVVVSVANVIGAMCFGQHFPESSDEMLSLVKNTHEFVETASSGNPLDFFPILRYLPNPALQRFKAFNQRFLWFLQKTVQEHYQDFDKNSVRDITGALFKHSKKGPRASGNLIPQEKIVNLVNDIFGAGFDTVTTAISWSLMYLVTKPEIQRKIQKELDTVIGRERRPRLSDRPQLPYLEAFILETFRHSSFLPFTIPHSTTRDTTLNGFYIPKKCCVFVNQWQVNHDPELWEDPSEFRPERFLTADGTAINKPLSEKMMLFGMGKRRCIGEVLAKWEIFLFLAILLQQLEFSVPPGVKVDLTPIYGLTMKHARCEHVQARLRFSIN

[10] = Cmax in rat; assay type: ADME, organism-based; details: in vivo
[11] = Cmax in dog; assay type: ADME, organism-based, Canis lupus familiaris; details: in vivo
[12] = Oral bioavailability in rat; assay type: ADME, organism-based; details: in vivo
[13] = target: T4, Muscarinic acetylcholine receptor M2 (Homo sapiens) (UniProt P08172); assay: Inhibition of muscarinic M2 receptor
T4 sequence (whole entry): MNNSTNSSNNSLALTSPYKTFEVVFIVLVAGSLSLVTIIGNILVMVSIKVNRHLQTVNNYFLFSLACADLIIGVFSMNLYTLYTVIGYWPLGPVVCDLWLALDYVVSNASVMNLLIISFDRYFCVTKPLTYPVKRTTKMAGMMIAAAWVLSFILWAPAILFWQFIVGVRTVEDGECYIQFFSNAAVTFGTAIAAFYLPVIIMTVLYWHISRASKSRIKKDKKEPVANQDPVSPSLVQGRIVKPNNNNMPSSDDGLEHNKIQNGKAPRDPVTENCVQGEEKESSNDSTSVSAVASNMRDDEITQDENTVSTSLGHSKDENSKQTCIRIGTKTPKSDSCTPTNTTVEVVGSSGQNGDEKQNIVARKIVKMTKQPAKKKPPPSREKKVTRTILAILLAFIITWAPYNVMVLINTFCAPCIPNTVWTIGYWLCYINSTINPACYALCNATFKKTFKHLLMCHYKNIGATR

Cytochrome P450 2D6 = Cytochrome P450 2D6 (Homo sapiens, UniProt P10635); assay: Inhibition of CYP2D6; assay type: ADME
Sequence of Cytochrome P450 2D6 (P10635 whole entry): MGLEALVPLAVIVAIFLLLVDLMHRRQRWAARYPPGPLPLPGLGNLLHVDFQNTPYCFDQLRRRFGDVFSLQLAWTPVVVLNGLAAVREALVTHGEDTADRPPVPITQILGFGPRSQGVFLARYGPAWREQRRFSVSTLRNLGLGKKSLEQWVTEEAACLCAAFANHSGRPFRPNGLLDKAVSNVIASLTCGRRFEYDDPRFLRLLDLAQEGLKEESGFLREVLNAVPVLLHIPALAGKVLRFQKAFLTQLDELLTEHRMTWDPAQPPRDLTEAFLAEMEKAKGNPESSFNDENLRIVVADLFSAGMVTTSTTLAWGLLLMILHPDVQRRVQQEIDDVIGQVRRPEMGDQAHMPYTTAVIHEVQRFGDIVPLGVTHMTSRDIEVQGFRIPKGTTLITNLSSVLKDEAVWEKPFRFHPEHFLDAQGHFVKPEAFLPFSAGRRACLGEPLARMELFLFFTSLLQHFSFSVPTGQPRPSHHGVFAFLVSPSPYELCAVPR

[14] = target: C-C chemokine receptor type 2 (Homo sapiens) (UniProt P41597); assay: Inhibition of CCR2B by Ca(2+) flux assay
Sequence of C-C chemokine receptor type 2 (Homo sapiens) (P41597 whole entry, looked up): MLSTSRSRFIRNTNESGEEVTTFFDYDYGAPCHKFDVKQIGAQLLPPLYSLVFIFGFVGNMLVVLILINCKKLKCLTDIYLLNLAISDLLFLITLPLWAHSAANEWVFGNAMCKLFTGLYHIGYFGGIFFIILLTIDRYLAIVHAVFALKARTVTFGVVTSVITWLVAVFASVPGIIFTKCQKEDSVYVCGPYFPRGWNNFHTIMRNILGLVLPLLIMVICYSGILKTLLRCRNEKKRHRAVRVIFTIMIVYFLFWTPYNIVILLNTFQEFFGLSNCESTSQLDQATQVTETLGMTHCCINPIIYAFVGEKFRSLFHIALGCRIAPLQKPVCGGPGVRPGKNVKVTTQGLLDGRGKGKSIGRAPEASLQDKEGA

Cytochrome P450 2C9 = Cytochrome P450 2C9 (Homo sapiens, UniProt P11712); assay: Inhibition of CYP2C9; assay type: ADME
Sequence of Cytochrome P450 2C9 (P11712 whole entry): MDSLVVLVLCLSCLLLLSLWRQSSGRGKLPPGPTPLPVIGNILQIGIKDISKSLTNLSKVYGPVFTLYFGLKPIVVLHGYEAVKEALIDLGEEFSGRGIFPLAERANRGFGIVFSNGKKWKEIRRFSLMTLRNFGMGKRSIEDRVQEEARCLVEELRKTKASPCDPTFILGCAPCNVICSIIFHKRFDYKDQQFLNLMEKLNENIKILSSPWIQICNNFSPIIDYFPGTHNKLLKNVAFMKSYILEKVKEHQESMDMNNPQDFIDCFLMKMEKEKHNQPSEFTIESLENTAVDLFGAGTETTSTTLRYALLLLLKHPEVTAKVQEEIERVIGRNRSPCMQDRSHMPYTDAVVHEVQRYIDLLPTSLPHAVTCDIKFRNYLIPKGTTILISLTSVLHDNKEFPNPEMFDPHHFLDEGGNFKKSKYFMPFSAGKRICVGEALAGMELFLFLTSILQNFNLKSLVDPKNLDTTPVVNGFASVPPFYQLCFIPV

[15] = Half life in dog at 5 umol/kg, iv; assay type: ADME, organism-based, Canis lupus familiaris; details: in vivo
[16] = Volume of distribution at steady state in dog at 5 umol/kg, iv; assay type: ADME, organism-based, Canis lupus familiaris; details: in vivo, read-out: Vdss
[17] = Clearance in dog at 5 umol/kg, iv; assay type: ADME, organism-based, Canis lupus familiaris; details: in vivo
[18] = target: C-X-C chemokine receptor type 4 (Homo sapiens) (UniProt P61073); assay: Inhibition of CXCR4 by Ca(2+) flux assay
Sequence of C-X-C chemokine receptor type 4 (Homo sapiens) (P61073 whole entry): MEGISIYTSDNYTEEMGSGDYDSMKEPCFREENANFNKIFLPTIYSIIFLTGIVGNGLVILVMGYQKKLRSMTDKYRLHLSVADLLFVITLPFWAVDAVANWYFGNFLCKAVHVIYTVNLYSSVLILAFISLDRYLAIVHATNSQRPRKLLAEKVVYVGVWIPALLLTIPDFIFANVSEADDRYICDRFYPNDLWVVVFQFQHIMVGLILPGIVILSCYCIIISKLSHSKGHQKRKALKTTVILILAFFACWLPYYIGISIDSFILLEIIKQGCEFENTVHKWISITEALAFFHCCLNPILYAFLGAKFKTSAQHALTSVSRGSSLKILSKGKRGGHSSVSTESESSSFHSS

[19] = (§3) Half life in rat at 10 umol/kg, iv; assay type: ADME, organism-based; details: in vivo, 10 umol/kg
[20] = target: T5, C-X-C chemokine receptor type 2 (Homo sapiens) (UniProt P25025); assay: Inhibition of CXCR2 by Ca(2+) flux assay
T5 sequence (whole entry): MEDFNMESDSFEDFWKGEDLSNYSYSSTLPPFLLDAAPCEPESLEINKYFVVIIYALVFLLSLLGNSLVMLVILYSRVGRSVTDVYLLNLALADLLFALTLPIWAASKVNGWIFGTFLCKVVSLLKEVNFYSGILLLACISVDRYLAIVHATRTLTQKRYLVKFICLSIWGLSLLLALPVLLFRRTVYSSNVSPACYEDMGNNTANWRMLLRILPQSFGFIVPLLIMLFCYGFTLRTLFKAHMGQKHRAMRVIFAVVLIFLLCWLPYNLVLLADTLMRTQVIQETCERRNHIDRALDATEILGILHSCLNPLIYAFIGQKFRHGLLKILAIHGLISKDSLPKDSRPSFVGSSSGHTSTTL

[21] = target: T6, C-C chemokine receptor type 4 (Homo sapiens) (UniProt P51679); assay: Inhibition of CCR4 by Ca(2+) flux assay
T6 sequence (whole entry): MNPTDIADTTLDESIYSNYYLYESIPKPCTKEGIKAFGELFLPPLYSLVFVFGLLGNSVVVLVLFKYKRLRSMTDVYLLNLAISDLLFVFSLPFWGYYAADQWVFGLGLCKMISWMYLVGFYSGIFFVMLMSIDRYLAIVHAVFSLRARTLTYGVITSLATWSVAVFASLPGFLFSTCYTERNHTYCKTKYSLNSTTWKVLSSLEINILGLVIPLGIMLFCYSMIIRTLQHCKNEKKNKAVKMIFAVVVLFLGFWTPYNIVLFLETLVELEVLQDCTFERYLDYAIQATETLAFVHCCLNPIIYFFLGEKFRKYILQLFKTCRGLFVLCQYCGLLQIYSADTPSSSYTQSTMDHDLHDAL

Cytochrome P450 2C19 = Cytochrome P450 2C19 (Homo sapiens, UniProt P33261); assay: Inhibition of CYP2C19; assay type: ADME
Sequence of Cytochrome P450 2C19 (P33261 whole entry): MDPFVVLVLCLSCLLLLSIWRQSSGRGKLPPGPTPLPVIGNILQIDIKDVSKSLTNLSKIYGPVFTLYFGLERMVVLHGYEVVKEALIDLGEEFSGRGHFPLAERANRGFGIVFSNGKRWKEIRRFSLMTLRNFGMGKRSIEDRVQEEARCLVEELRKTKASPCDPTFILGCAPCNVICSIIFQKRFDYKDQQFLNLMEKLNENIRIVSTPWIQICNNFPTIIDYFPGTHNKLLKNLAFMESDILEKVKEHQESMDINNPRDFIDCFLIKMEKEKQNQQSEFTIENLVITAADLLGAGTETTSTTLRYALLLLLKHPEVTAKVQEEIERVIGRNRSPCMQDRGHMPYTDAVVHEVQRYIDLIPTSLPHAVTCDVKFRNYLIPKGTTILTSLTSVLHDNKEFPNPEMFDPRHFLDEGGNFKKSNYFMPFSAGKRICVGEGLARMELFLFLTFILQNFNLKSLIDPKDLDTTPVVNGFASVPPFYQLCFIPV

[22] = as §1; assay type: ADME, cell-free; details: read-out: PPB (converted)
[23] = Clearance in rat at 10 umol/kg, iv; assay type: ADME, organism-based; details: in vivo
Rattus norvegicus [24] = assay: as §2; assay type: ADME, organism-based; details: in vivo
Rattus norvegicus [25] = assay: as §3; assay type: ADME, organism-based; details: in vivo

| SMILES | pIC50 [1] | CC50 [2] [nM] | AUC(0-inf) [6] [µM·h] | AUC(0-inf) [7] [µM·h] | bioavailability [9] [%] | Cmax [10] [nM] | Cmax [11] [nM] | bioavailability [12] [%] | half-life [15] [h] | Vd [16] [L/kg] | clearance [17] [mL/min/kg] | fraction unbound at 5 h, 1 µM [22] | further results |
| --- | --- | --- | --- | --- | --- | --- | --- | --- | --- | --- | --- | --- | --- |
| COc1ccc(N(Cc2cnccc2C)C2CCN([C@H](C)CCNC(=O)c3c(C)ncnc3C)CC2)cc1 | 5.74 | > 38300 |  |  |  |  |  |  |  |  |  |  | PPB (Plasma): 75% |
| COc1ccc(N(Cc2cnccc2C)C2CCN([C@H](C)CCNC(=O)c3c(C)cc(Cl)nc3C)CC2)cc1 | 8.66 | > 36400 | 22.7 | 1.33 | 21 | 3800 | 580 | 67 | 13.5 | 34.7 | 30 | 0.08 | inhibition [3]: inactive; inhibition [4]: inactive; pIC50 [5]: 6.60; Vd [8]: 40.5 L/kg; INH (Cytochrome P450 3A4): > 10 µM; INH (Cytochrome P450 1A2): > 10 µM; inhibition [13]: inactive; INH (Cytochrome P450 2D6): > 10 µM; inhibition [14]: inactive; INH (Cytochrome P450 2C9): > 10 µM; inhibition [18]: inactive; half-life [19]: 10 h; inhibition [20]: inactive; inhibition [21]: inactive; INH (Cytochrome P450 2C19): > 10 µM; clearance [23]: 46.7 mL/min/kg |
| COc1ccc(N(Cc2cccnc2)C2CCN([C@H](C)CCNC(=O)c3c(C)cc(Cl)nc3C)CC2)cc1 | 7.72 | > 37300 | 4.83 | 2.73 | 37 | 1330 | 1570 | 23 | 13.2 | 26.7 | 23.3 | 0.07 | Vdss (Rattus norvegicus [24]): 50.5 L/kg; t1/2 (Rattus norvegicus [25]): 8.6 h |
